Among the data in PubChem BioAssay (NCI) are GI50 and TGI values, retold here.

Broadly, the GI50 is the concentration giving 50% growth inhibition. In general, TGI refers to the concentration at which net growth stops.

Common to all, as to assay: DTP human tumour cell line panel, 48 h
Test [1] deals with PC-3 prostate.
Test [2] relates to NCI-H226 lung.
The subject of test [3] is MOLT-4 leukemia.
The test system of test [4] is UACC-62 melanoma.
In test [5] the test system is SF-295 CNS.
Test [6] deals with SK-MEL-28 melanoma.
Test [7] concerns CCRF-CEM leukemia.
Test [8] has as its system ACHN renal.
Test [9] has as its system MDA-MB-231 breast.
Test [10] relates to SF-268 CNS.

Where “and” joins values, the source holds several entries; their conditions need not be identical. Equal entries are not always repeated.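 Step 1: Grow cells in 96-well plates. Step 2: Expose to compound for 48 hours at 5 concentrations. Step 3: Interpolate endpoints linearly; if unreached, use highest concentration. The concentration for 50% growth inhibition is given as GI50. TGI marks complete inhibition of growth.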

As to `Cc1c(Cl)cccc1NC(=O)c1sc2nc3c(cc2c1N)CCCCCC3`, the GI50 was 0.174 µM in test [1]; 1.14 µM in test [2]; 0.265 µM in [3]; 0.205 µM in [4]; 0.168 µM in [5]; 4.59 µM in [6]. For the same compound, the GI50 was 0.176 µM in [7], 0.465 µM in [8], 0.356 µM in test [9] and 0.821 µM in test [10]. For the same compound, the TGI in [1] is over 50 µM; in [2], 25.1 µM; in test [3], over 50 µM; in [4], 46.6 µM; in test [5] it was 13 µM; in test [6], over 50 µM. Also, the TGI in [7], in [8], in test [9] and in [10] was over 50 µM in each case.
Consider `Cc1c(CN2CCC(Nc3ncnc4sc(CC(F)(F)F)cc34)CC2)ccc2c1cc(C#N)n2Cc1cn[nH]c1`, for which the GI50 in test [1] is 2.31 µM and 2.33 µM; in test [2] it was 7.58 µM and 4.31 µM; in test [3] it was 1.91 µM and 1.98 µM; in test [4] it was 6.53 µM and 8.73 µM; in test [5], 2.72 µM and 3.06 µM; in test [6] it was 2.2 µM and 5 µM. Further, the GI50 in test [7] was 2.98 µM and 2.97 µM; in [8], 4.47 µM and 10.7 µM; in [9] it was 2.32 µM and 4.04 µM; in [10], 4.48 µM and 5.71 µM. Besides, the TGI in test [1] is 18.9 µM and > 32.7 µM; in test [2], 40.2 µM and 36.9 µM; in test [3], 9.55 µM; in test [4], 24.9 µM and > 44.3 µM; in test [5], 14.9 µM; in test [6], 6.28 µM. Also, the TGI in test [7] was over 33.7 µM; in [8] it was 19.5 µM and > 38 µM; in test [9] it was 7.12 µM; in test [10], 25.5 µM and > 36.5 µM.
For the compound `CN(C)CCNC(=O)c1cc([N+](=O)[O-])ccn1`, the TGI in [1] was 61.4 µM; in [2] it was over 100 µM; in test [3], 49.3 µM; in [4], 42.3 µM; in test [5] it was 93.9 µM; in test [6] it was over 100 µM. Moreover, the TGI in test [7] was 91.8 µM; in test [8] it was over 100 µM; in [9], 58.1 µM; in test [10], 70.7 µM.
Take `Fc1ccc(-c2nnc3sc(-c4cccc(Cl)c4)nn23)cc1Cl`: the GI50 in test [1], in test [2], in test [3], in [4], in test [5] and in test [6] was over 100 µM each time. Further, the GI50 in [7], in test [8], in test [9] and in test [10] was over 100 µM in each case. Also, the concentration for total growth inhibition (TGI) in [1], in [2], in test [3], in test [4], in test [5] and in [6] was over 100 µM in each case. Also, the TGI in test [7], in test [8], in test [9] and in [10] was over 100 µM each time.
As to `CC1(C)N=C(N)N=C(N)N1c1cccc(CCCCc2ccc(S(=O)(=O)F)cc2Cl)c1`, the GI50 in [1] was 0.581 µM; in test [2], 9.37 µM; in test [3], 7.42 µM; in test [4] it was 0.494 µM; in test [5], 2.44 µM; in test [6] it was 8.62 µM. The GI50 is 3.29 µM in test [7], 8.66 µM in test [8], 10.9 µM in [9] and 1.96 µM in test [10]. The TGI is over 100 µM in [1]; 50.6 µM in [2]; over 65.3 µM in [3]; 17.1 µM in test [4]; over 38.8 µM in test [5]; 22 µM in test [6]. Besides, the TGI in [7] is 36.5 µM; in [8], over 100 µM; in [9], 43.1 µM; in [10] it was 17.4 µM.
As to `NC(=NC1CCCCCC1)c1ccc(N2CCN(c3ccc(C(N)=NC4CCCCCC4)cc3)CC2)cc1`, the GI50 was 12.1 µM in test [1]; 7.64 µM in test [2]; 23.9 µM in test [3]; 7.8 µM in test [4]; 3.89 µM in test [5]; 10.7 µM in [6]. Also, the GI50 was 10.5 µM in test [7], 46.4 µM in [8], 8.39 µM in test [9] and 6.92 µM in test [10]. Further, the TGI was over 50 µM in test [1]; 28.9 µM in [2]; over 50 µM in test [3]; 17.2 µM in test [4]; 19.9 µM in test [5]; 22.4 µM in test [6]. The TGI was 46.5 µM in [7], over 50 µM in test [8], 29 µM in test [9] and 15 µM in test [10].
Consider `CCN(CC)CCCC(C)Nc1cnc(C(=O)Nc2cc(F)cc3cccnc23)cn1` (stereo not given), for which the GI50 in test [1] is 3.55 µM and 0.614 µM; in [2], 4.71 µM and 1.99 µM; in [3], 1.94 µM and 0.496 µM; in test [4], 2.28 µM and 1.27 µM; in test [5] it was 12.7 µM and 1.81 µM; in [6], 1.84 µM and 1.22 µM. Further, the GI50 in test [7] is 2.55 µM and 0.478 µM; in test [8] it was 2.81 µM and 0.683 µM; in test [9] it was 3.42 µM and 0.568 µM; in [10] it was 5.32 µM and 1.56 µM. The TGI in test [1] is 15.3 µM and 2.24 µM; in [2] it was 18.5 µM and 4.13 µM; in [3], 6.53 µM and > 43 µM; in test [4], 5.5 µM and 2.69 µM; in test [5], 26.4 µM and 3.33 µM; in test [6], 3.53 µM and 2.5 µM. Further, the TGI is 10.6 µM in [7]; 9.61 µM and 1.96 µM in test [8]; 12.8 µM and 2.02 µM in test [9]; 20.9 µM and 3.25 µM in test [10].
